The IC50 is the concentration at which inhibition is half-maximal.

The source of these data is patent US20250034150A1, “BTK INHIBITORS” (BIOGEN MA INC., priority 2021, published 2025).

Like-named read-outs stand apart in the source and are kept apart here.

In one assay the target is T1, BTK (Homo sapiens, UniProt Q06187).
T1 construct: purchased Upstate 14-552
The experiment in a line: In Vitro BTK Kinase Assay: Btk-PolyGAT-LS Assay. Format: biochemical. The settings on record: active BTK enzyme 0.25 nM, polyGAT 100 nM, 30 minutes, TRF readout; read-out: In Vitro BTK Kinase Assay IC50 Score. An outline of the steps: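 Active BTK at 0.25 nM phosphorylated 100 nM fluorescein-polyGAT peptide at 10 μM ATP for 30 minutes. Buffer was Tris pH 7.5 with MgCl2, DTT, Triton X-100 and casein, and reactions were stopped with EDTA. Phospho-peptide was detected by Tb-PY20 antibody TR-FRET, and IC50 came from a four-parameter fit normalized to DMSO and EDTA controls.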

Assay [1] has as its system CD69 expression on CD19+ B cells in human whole blood. The assay can be described thus: In Vitro whole blood CD69 Assay. It counts as cell-based. The settings on record: B-cell, read-out: In Vitro HWB CD69 Assay IC50 Score. The gist of the method:
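Heparinized healthy-donor human whole blood was preincubated with compound (0.1% DMSO) for 30 min at 37 °C. Stimulation used 0.1 µg/mL anti-IgD-dextran or 20 µg/mL rabbit F(ab′)2 anti-IgD for 18–22 h at 37 °C. CD69 on gated CD19+ B cells was then measured by flow cytometry.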

Setting [2] is: human heparinized whole blood, anti-human IgD stimulation overnight, CD19+ B cells, flow cytometry.

T1 sequence (Q06187 whole entry): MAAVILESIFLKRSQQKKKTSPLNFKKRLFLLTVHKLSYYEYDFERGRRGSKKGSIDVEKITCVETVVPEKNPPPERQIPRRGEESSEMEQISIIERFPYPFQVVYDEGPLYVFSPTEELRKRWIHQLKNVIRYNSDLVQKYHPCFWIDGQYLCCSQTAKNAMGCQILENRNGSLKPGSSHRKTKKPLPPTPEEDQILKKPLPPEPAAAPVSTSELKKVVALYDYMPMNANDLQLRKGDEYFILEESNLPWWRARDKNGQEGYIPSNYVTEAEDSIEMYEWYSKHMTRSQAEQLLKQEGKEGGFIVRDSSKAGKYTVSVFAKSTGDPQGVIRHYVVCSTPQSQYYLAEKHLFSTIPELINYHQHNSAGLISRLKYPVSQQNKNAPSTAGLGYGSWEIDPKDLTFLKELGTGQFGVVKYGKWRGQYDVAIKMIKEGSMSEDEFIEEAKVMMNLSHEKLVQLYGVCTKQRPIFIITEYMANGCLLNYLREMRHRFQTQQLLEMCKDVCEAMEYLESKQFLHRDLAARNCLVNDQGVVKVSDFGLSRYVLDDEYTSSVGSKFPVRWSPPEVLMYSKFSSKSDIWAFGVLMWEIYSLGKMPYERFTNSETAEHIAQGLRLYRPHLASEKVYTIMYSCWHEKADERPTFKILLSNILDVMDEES

Take `Cn1cc(-c2cn3nccc3c(-c3cc(F)c(CNC(=O)c4cnn(C(C)(C)C)n4)cc3F)n2)cn1` [Example 97, 2-(tert-butyl)-N-(2,5-difluoro-4-(6-(1-methyl-1H-pyrazol-4-yl)pyrazolo[1,5-a]pyrazin-4-yl)benzyl)-2H-1,2,3-triazole-4-carboxamide]: the values for the half-inhibitory concentration (IC50) (at BTK; in assay [1] (setting [2])) were 0.001 to 0.01 µM and 1 to 10 µM, respectively.

As for `Cn1cc(-c2cn3nccc3c(-c3ccc(CNC(=O)c4coc(C(C)(C)C)n4)c(F)c3)n2)cn1` [Example 12, 2-(tert-butyl)-N-(2-fluoro-4-(6-(1-methyl-1H-pyrazol-4-yl)pyrazolo[1,5-a]pyrazin-4-yl)benzyl)oxazole-4-carboxamide], the IC50 is less than 0.001 µM at BTK and less than 1 µM in assay [1] (setting [2]).

For `Cc1cc(-c2nc(-c3cnn(C)c3)cn3nccc23)ccc1CNC(=O)c1ccn(C(C)(C)C)n1` [Example 18, 1-(tert-butyl)-N-(2-methyl-4-(6-(1-methyl-1H-pyrazol-4-yl)pyrazolo[1,5-a]pyrazin-4-yl)benzyl)-1H-pyrazole-3-carboxamide], the values for the IC50 (on BTK; in assay [1] (setting [2])) were 0.001 to 0.01 µM and less than 1 µM, respectively.

As to `Cn1cc(-c2cn3nccc3c(-c3ccc(CNC(=O)c4cn(C(C)(C)C)nn4)c(C(F)F)c3)n2)cn1` [Example 105, 1-(tert-butyl)-N-(2-(difluoromethyl)-4-(6-(1-methyl-1H-pyrazol-4-yl)pyrazolo[1,5-a]pyrazin-4-yl)benzyl)-1H-1,2,3-triazole-4-carboxamide], the IC50 is less than 0.001 µM on BTK and less than 1 µM in assay [1] (setting [2]).

For the compound `Cn1cc(-c2cn3nccc3c(-c3ccc(CNC(=O)c4nc(C(C)(C)C)co4)cc3F)n2)cn1` [Example 110, 4-(tert-butyl)-N-(3-fluoro-4-(6-(1-methyl-1H-pyrazol-4-yl)pyrazolo[1,5-a]pyrazin-4-yl)benzyl)oxazole-2-carboxamide], the IC50 at BTK was in the range of 0.001 to 0.01 µM; in assay [1] (setting [2]) it was 1 to 10 µM.

Turning to `COCCOc1cn2nccc2c(-c2ccc(CNC(=O)c3noc(C(C)(C)C)n3)c(C)c2)n1` [Example 132, 5-(tert-butyl)-N-(4-(6-(2-methoxyethoxy)pyrazolo[1,5-a]pyrazin-4-yl)-2-methylbenzyl)-1,2,4-oxadiazole-3-carboxamide], the IC50 lay within 0.001 to 0.01 µM on BTK and 1 to 10 µM in assay [1] (setting [2]).

In the case of `Cn1cc(-c2cn3nccc3c(-c3ccc(CNC(=O)c4cnn(C(C)(C)C)n4)cc3)n2)cn1` [Example 21, 2-(tert-butyl)-N-(4-(6-(1-methyl-1H-pyrazol-4-yl)pyrazolo[1,5-a]pyrazin-4-yl)benzyl)-2H-1,2,3-triazole-4-carboxamide], the results for the IC50 (on BTK; in assay [1] (setting [2])) were less than 0.001 µM and 1 to 10 µM, respectively.

With `Cn1cc(-c2cn3nccc3c(-c3ccc(CNC(=O)c4cnn(C(C)(C)C)n4)c(F)c3F)n2)cn1` [Example 92, 2-(tert-butyl)-N-(2,3-difluoro-4-(6-(1-methyl-1H-pyrazol-4-yl)pyrazolo[1,5-a]pyrazin-4-yl)benzyl)-2H-1,2,3-triazole-4-carboxamide], the IC50 is less than 0.001 µM on BTK and less than 1 µM in assay [1] (setting [2]).

For the compound `Cn1cc(-c2cn3nccc3c(-c3ccc(CNC(=O)c4cnn(C(C)(C)C)c4)c(F)c3)n2)cn1` [Example 10, 1-(tert-butyl)-N-(2-fluoro-4-(6-(1-methyl-1H-pyrazol-4-yl)pyrazolo[1,5-a]pyrazin-4-yl)benzyl)-1H-pyrazole-4-carboxamide], the IC50 on BTK was less than 0.001 µM; in assay [1] (setting [2]), less than 1 µM.

Take `Cn1cc(-c2cn3nccc3c(N3CC[C@H](CNC(=O)c4cn(C(C)(C)C)nn4)[C@H](F)C3)n2)cn1` [Example 152, 1-(tert-butyl)-N-((3-fluoro-1-(6-(1-methyl-1H-pyrazol-4-yl)pyrazolo[1,5-a]pyrazin-4-yl)piperidin-4-yl)methyl)-1H-1,2,3-triazole-4-carboxamide]: the IC50 on BTK fell in the range of 0.001 to 0.01 µM; in assay [1] (setting [2]), 1 to 10 µM.

For `Cn1cc(-c2cn3nccc3c(-c3cc(F)c(CNC(=O)c4cn(C(C)(C)C)nn4)cc3F)n2)cn1` [Example 98, 1-(tert-butyl)-N-(2,5-difluoro-4-(6-(1-methyl-1H-pyrazol-4-yl)pyrazolo[1,5-a]pyrazin-4-yl)benzyl)-1H-1,2,3-triazole-4-carboxamide], the IC50 at BTK lay within 0.001 to 0.01 µM; in assay [1] (setting [2]), 1 to 10 µM.

In the case of `Cn1cc(-c2cn3nccc3c(N3CCC(F)(CNC(=O)c4noc(C(C)(C)C)n4)CC3)n2)cn1` [Example 160, 5-(tert-butyl)-N-((4-fluoro-1-(6-(1-methyl-1H-pyrazol-4-yl)pyrazolo[1,5-a]pyrazin-4-yl)piperidin-4-yl)methyl)-1,2,4-oxadiazole-3-carboxamide], the IC50 on BTK was in the range of 0.001 to 0.01 µM; in assay [1] (setting [2]) it was 1 to 10 µM.

On to `Cc1cc(-c2cc(-c3cnn(C)c3)cn3nccc23)ccc1CNC(=O)c1cn(C(C)(C)C)nn1` [Example 66, 1-(tert-butyl)-N-(2-methyl-4-(6-(1-methyl-1H-pyrazol-4-yl)pyrazolo[1,5-a]pyridin-4-yl)benzyl)-1H-1,2,3-triazole-4-carboxamide], for which the values for the IC50 (at BTK; in assay [1] (setting [2])) were less than 0.001 µM and less than 1 µM, respectively.

For the compound `Cn1cc(-c2cn3nccc3c(-c3ccc(CNC(=O)c4coc(C(C)(C)C)n4)c(F)c3F)n2)cn1` [Example 90, 2-(tert-butyl)-N-(2,3-difluoro-4-(6-(1-methyl-1H-pyrazol-4-yl)pyrazolo[1,5-a]pyrazin-4-yl)benzyl)oxazole-4-carboxamide], the half-inhibitory concentration (IC50) at BTK was less than 0.001 µM; in assay [1] (setting [2]), less than 1 µM.

In the case of `Cn1cc(-c2cc3nccn3c(-c3ccc(CNC(=O)c4ccn(C(C)(C)C)n4)cc3)n2)cn1` [Example 56, 1-(tert-butyl)-N-(4-(7-(1-methyl-1H-pyrazol-4-yl)imidazo[1,2-c]pyrimidin-5-yl)benzyl)-1H-pyrazole-3-carboxamide], the IC50 was in the range of 0.01 to 1 µM at BTK and 1 to 10 µM in assay [1] (setting [2]).

Take `Cc1cc(-c2nc(-c3cnn(C)c3)cn3nccc23)ccc1CNC(=O)c1nnc(C(C)(C)C)o1` [Example 14, 5-(tert-butyl)-N-(2-methyl-4-(6-(1-methyl-1H-pyrazol-4-yl)pyrazolo[1,5-a]pyrazin-4-yl)benzyl)-1,3,4-oxadiazole-2-carboxamide]: the figures for the IC50 (at BTK; in assay [1] (Homo sapiens)) were less than 0.001 µM and less than 1 µM, respectively.

For `COCCOc1cn2nccc2c(-c2ccc(CNC(=O)c3nc(C4(C)CC4)no3)c(C)c2)n1` [Example 133, N-(4-(6-(2-methoxyethoxy)pyrazolo[1,5-a]pyrazin-4-yl)-2-methylbenzyl)-3-(1-methylcyclopropyl)-1,2,4-oxadiazole-5-carboxamide], the IC50 fell in the range of 0.001 to 0.01 µM on BTK and 1 to 10 µM in assay [1] (setting [2]).

Regarding `CC1CN(c2nc(-c3cnn(C)c3)cn3nccc23)CCC1CNC(=O)c1noc(C2(C)CC2)n1` (stereo not drawn) [Example 149, N-((3-methyl-1-(6-(1-methyl-1H-pyrazol-4-yl)pyrazolo[1,5-a]pyrazin-4-yl)piperidin-4-yl)methyl)-5-(1-methylcyclopropyl)-1,2,4-oxadiazole-3-carboxamide], the IC50 was in the range of 0.001 to 0.01 µM on BTK and 1 to 10 µM in assay [1] (setting [2]).

In the case of `Cn1cc(-c2cn3nccc3c(-c3ccc(CNC(=O)c4nnn(C(C)(C)C)n4)nc3)n2)cn1` [Example 115, 2-(tert-butyl)-N-((5-(6-(1-methyl-1H-pyrazol-4-yl)pyrazolo[1,5-a]pyrazin-4-yl)pyridin-2-yl)methyl)-2H-tetrazole-5-carboxamide], the results for the IC50 (on BTK; in assay [1] (setting [2])) were 0.001 to 0.01 µM and 1 to 10 µM, respectively.

For `Cn1cc(-c2cc3nccn3c(-c3ccc(CNC(=O)c4nnn(C(C)(C)C)n4)cc3)n2)cn1` [Example 58, 2-(tert-butyl)-N-(4-(7-(1-methyl-1H-pyrazol-4-yl)imidazo[1,2-c]pyrimidin-5-yl)benzyl)-2H-tetrazole-5-carboxamide], the IC50 on BTK is less than 0.001 µM; in assay [1] (setting [2]), less than 1 µM.

In the case of `Cn1cc(-c2cn3nccc3c(N3CCC(C)(CNC(=O)c4noc(C5(C)CC5)n4)CC3)n2)cn1` [Example 46, N-((4-methyl-1-(6-(1-methyl-1H-pyrazol-4-yl)pyrazolo[1,5-a]pyrazin-4-yl)piperidin-4-yl)methyl)-5-(1-methylcyclopropyl)-1,2,4-oxadiazole-3-carboxamide], the IC50 on BTK was 0.01 to 1 µM; in assay [1] (setting [2]) it was 1 to 10 µM.

For `Cn1cc(-c2cn3nccc3c(-c3ccc(CNC(=O)c4cn(C(C)(C)C)nn4)c(F)c3F)n2)cn1` [Example 93, 1-(tert-butyl)-N-(2,3-difluoro-4-(6-(1-methyl-1H-pyrazol-4-yl)pyrazolo[1,5-a]pyrazin-4-yl)benzyl)-1H-1,2,3-triazole-4-carboxamide], the values for the IC50 (on BTK; in assay [1] (setting [2])) were less than 0.001 µM and less than 1 µM, respectively.

For `Cn1cc(-c2cn3nccc3c(-c3ccc(CNC(=O)c4nnc(C(C)(C)C)o4)c(F)c3)n2)cn1` [Example 6, 5-(tert-butyl)-N-(2-fluoro-4-(6-(1-methyl-1H-pyrazol-4-yl)pyrazolo[1,5-a]pyrazin-4-yl)benzyl)-1,3,4-oxadiazole-2-carboxamide], the IC50 is less than 0.001 µM on BTK and less than 1 µM in assay [1] (Homo sapiens).

For `Cn1cc(-c2cn3nccc3c(-c3cc(F)c(CNC(=O)c4nnn(C(C)(C)C)n4)cc3F)n2)cn1` [Example 99, 2-(tert-butyl)-N-(2,5-difluoro-4-(6-(1-methyl-1H-pyrazol-4-yl)pyrazolo[1,5-a]pyrazin-4-yl)benzyl)-2H-tetrazole-5-carboxamide], the values for the IC50 (at BTK; in assay [1] (setting [2])) were less than 0.001 µM and less than 1 µM, respectively.
